Experiment [1] has as its target T1, NUAK family SNF1-like kinase 1 (Homo sapiens, UniProt O60285).
T1 sequence (O60285 whole entry): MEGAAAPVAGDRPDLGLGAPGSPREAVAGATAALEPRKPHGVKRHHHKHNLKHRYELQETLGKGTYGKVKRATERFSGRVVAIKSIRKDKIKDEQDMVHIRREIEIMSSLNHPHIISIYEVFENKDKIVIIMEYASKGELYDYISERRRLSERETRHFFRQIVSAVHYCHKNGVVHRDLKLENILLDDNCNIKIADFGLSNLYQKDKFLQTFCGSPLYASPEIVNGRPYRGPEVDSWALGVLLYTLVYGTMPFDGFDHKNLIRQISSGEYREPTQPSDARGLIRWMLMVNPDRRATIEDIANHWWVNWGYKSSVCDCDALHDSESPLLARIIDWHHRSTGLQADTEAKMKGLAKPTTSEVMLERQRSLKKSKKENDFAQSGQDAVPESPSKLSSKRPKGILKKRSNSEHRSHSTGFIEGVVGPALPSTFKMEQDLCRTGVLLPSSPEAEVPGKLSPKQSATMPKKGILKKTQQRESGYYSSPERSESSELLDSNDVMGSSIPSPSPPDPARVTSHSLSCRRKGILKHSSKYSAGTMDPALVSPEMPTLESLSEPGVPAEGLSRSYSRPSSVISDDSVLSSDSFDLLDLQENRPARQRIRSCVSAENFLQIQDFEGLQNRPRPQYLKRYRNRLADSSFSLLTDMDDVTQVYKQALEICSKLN
Put plainly: Inhibition of N-terminal GST-tagged wild type human NUAK1 expressed in Escherichia coli DH5alpha incubated for 30 mins in presence of gamma-[32P]ATP by cerenkov counting analysis.

In experiment [2] the target is T1, NUAK family SNF1-like kinase 1. Put plainly: Inhibition of NUAK1 (unknown origin).
The target of experiment [3] is T2, NUAK family SNF1-like kinase 1 (Homo sapiens) (UniProt O60285).
T2 sequence (whole entry): T1 sequence (O60285 whole entry)
Put plainly: Inhibition of NUAK1 (unknown origin) at 1 uM relative to control.

For experiment [4], the target named is T2, NUAK family SNF1-like kinase 1 (Homo sapiens). Put plainly: Inhibition of NUAK1 (unknown origin) at 0.01 uM relative to control.
Experiment [5] has the same target. Put plainly: Inhibition of NUAK1 (unknown origin) at 0.10 uM relative to control. The conditions noted are these: dose 0.1 µM.
The target in experiment [6] is Cyclin-dependent kinase 4 (Homo sapiens) (UniProt P11802). Put plainly: Inhibition of CDK4 (unknown origin).
Experiment [7] addresses Proto-oncogene tyrosine-protein kinase receptor Ret (Homo sapiens, UniProt P07949). The experiment is described as follows: Inhibition of RET (unknown origin).
Experiment [8] has as its target T3, NUAK family SNF1-like kinase 2 (Homo sapiens, UniProt Q9H093).
T3 sequence (Q9H093 whole entry): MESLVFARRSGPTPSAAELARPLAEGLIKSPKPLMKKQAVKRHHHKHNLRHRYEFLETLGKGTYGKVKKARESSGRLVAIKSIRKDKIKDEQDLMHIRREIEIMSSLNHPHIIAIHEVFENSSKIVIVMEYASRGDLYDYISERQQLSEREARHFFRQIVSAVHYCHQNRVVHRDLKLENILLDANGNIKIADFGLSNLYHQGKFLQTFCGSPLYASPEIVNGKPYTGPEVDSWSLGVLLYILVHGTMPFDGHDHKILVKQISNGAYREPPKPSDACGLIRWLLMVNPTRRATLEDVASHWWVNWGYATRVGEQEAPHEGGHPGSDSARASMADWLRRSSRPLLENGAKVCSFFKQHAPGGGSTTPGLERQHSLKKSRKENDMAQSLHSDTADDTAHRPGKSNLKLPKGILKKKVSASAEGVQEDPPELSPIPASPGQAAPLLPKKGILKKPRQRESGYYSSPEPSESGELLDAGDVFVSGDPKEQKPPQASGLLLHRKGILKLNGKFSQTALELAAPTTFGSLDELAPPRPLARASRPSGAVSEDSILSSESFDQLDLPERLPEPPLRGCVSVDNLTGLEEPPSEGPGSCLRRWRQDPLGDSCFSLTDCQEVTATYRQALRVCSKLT
Put plainly: Inhibition of NUAK2 (unknown origin).

A further experiment has as its target T4, Aurora kinase C (Homo sapiens, UniProt Q9UQB9).
T4 sequence (Q9UQB9 whole entry): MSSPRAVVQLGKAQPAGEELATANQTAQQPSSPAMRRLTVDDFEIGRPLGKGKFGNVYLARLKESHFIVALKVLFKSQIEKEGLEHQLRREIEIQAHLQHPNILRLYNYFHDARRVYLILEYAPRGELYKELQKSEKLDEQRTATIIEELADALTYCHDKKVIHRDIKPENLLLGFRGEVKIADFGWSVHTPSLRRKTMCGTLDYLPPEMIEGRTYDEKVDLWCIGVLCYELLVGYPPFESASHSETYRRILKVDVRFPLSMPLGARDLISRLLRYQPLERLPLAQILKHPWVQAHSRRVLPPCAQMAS
Put plainly: Inhibition of Aurora C (unknown origin).

Experiment [9] concerns the target T1, NUAK family SNF1-like kinase 1. Put plainly: Inhibition of NUAK1 in HEK293 cells assessed as effect on MYPT1 phosphorylation at Ser445 incubated for 3 mins by immunoblotting analysis. It is filed as cell-based. (In western blotting, separated proteins are transferred to a membrane and probed.)
Another experiment addresses Aurora kinase B (Homo sapiens, UniProt Q96GD4). Put plainly: Inhibition of Aurora B (unknown origin).
For experiment [10], the target named is T5, Insulin-like growth factor 1 receptor (Homo sapiens, UniProt P08069). Put plainly: Binding affinity to human IGF1R expressed in mouse IGF1R knockout MEF cells assessed as dissociation constant. It is filed as cell-based.
In experiment [11] the target is T6, Insulin receptor (Homo sapiens, UniProt P06213). The experiment is described as follows: Inhibition of human InsR expressed in mouse IGF1R knockout MEF cells. It counts as cell-based.
Experiment [12] addresses T5, Insulin-like growth factor 1 receptor. Put plainly: Inhibition of human IGF1R expressed in mouse IGF1R knockout MEF cells. It is filed as cell-based.
In experiment [13] the target is T6, Insulin receptor. Put plainly: Binding affinity to human InsR expressed in mouse IGF1R knockout MEF cells assessed as dissociation constant. It is filed as cell-based.
Experiment [14] is described as follows: Inhibition of N-terminal GST-tagged human NUAK1 A195T mutant expressed in Escherichia coli DH5alpha incubated for 30 mins in presence of gamma-[32P]ATP by cerenkov counting analysis.

T6 sequence (P06213 28-758 limits assumed): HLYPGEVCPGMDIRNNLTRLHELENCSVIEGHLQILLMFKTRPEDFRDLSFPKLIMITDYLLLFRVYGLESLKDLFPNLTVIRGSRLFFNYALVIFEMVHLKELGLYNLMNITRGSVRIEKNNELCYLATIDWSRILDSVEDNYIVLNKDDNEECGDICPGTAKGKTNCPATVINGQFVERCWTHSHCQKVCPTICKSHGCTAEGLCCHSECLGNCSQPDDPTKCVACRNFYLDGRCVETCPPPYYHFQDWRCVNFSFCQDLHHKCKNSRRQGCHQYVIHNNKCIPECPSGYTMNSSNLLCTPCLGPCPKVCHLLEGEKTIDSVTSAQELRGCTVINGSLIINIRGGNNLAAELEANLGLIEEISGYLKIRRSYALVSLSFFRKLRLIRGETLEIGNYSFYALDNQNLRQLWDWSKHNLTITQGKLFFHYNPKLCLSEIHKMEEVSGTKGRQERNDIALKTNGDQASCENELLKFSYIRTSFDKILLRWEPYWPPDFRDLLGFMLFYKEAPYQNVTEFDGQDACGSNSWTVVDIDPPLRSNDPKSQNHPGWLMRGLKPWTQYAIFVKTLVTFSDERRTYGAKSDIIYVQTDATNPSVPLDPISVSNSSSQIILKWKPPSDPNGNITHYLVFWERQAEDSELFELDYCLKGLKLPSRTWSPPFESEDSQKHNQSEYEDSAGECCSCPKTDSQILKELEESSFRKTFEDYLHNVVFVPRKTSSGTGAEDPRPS
T6 sequence (P06213 763-1382 limits assumed): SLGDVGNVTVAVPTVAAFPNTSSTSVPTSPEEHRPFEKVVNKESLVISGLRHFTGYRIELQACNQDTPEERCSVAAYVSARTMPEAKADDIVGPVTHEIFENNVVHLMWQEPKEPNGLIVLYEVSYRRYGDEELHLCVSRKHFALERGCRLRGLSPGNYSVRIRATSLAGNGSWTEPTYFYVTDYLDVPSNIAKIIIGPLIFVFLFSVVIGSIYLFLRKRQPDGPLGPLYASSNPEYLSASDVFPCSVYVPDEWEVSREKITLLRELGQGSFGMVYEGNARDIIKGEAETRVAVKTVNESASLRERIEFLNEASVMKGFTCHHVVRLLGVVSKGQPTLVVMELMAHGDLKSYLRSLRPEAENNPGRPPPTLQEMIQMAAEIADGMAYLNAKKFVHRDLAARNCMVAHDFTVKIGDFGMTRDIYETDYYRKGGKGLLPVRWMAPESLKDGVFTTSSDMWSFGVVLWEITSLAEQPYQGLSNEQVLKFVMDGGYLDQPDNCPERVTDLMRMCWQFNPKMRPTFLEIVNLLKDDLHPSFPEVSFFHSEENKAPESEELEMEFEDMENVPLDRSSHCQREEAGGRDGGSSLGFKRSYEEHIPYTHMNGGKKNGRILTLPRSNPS
T5 sequence (P08069 31-736 limits assumed): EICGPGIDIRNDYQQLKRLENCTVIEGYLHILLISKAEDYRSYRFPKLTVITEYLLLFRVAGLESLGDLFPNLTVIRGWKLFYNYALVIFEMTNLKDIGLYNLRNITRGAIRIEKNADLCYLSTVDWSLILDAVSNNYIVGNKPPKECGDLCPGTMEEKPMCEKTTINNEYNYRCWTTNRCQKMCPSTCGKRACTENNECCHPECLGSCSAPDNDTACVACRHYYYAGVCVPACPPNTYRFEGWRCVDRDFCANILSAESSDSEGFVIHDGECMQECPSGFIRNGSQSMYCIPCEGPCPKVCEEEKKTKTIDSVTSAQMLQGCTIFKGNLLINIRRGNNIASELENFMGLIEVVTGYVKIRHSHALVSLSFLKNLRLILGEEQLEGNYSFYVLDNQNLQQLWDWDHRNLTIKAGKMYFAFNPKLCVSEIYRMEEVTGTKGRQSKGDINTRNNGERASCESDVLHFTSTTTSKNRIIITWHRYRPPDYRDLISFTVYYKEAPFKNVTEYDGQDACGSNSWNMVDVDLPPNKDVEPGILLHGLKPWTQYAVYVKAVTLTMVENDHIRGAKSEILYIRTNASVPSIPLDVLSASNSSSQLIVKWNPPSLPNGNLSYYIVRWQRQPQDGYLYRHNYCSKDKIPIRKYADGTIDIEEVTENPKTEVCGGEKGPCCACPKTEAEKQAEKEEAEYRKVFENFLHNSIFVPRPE
T5 sequence (P08069 741-1367 limits assumed): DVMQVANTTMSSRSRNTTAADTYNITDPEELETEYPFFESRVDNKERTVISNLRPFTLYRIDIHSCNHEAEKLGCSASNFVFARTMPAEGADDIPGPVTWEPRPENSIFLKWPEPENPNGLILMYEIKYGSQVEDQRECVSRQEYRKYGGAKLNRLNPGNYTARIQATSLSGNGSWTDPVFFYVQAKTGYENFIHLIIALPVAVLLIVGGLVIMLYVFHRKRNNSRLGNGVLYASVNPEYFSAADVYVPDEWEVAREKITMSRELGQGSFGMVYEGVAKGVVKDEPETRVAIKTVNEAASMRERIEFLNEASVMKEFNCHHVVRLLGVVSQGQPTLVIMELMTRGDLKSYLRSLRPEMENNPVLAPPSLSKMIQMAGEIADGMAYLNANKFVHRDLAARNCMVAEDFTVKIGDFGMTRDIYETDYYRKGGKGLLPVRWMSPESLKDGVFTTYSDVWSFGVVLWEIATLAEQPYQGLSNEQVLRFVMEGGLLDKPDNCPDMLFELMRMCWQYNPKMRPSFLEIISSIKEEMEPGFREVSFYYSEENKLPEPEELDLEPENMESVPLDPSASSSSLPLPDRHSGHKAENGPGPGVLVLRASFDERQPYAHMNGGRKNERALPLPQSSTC
Chain of Proto-oncogene tyrosine-protein kinase receptor Ret (P07949 whole entry): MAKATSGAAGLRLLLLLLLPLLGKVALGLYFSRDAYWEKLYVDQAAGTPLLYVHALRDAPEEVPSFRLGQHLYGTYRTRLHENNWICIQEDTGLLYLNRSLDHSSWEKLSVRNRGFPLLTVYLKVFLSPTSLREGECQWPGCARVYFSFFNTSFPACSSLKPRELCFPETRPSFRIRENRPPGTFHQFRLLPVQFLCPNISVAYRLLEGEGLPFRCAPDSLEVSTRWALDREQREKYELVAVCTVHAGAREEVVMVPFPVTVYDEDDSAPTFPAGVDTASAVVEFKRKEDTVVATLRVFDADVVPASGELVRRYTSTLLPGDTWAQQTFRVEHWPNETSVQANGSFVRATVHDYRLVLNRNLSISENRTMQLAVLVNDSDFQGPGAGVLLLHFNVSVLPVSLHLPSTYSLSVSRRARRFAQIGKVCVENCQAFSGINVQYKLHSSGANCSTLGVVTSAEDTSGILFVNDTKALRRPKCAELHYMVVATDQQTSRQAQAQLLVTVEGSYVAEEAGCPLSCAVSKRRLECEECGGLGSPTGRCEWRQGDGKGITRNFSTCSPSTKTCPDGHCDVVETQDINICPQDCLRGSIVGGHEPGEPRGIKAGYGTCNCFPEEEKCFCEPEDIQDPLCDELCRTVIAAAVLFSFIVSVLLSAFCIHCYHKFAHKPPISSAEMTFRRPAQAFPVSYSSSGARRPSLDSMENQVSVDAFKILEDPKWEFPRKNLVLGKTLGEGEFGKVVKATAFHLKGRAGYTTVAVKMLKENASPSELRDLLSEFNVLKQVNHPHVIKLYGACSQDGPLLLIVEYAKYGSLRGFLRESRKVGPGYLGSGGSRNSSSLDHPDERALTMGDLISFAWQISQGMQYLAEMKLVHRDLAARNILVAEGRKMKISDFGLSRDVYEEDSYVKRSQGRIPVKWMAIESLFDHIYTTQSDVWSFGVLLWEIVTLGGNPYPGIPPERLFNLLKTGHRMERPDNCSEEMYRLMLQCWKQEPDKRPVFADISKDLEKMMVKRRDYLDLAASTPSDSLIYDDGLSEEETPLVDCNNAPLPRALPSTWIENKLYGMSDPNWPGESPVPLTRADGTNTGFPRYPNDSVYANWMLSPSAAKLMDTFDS
Chain of Cyclin-dependent kinase 4 (Homo sapiens) (P11802 whole entry): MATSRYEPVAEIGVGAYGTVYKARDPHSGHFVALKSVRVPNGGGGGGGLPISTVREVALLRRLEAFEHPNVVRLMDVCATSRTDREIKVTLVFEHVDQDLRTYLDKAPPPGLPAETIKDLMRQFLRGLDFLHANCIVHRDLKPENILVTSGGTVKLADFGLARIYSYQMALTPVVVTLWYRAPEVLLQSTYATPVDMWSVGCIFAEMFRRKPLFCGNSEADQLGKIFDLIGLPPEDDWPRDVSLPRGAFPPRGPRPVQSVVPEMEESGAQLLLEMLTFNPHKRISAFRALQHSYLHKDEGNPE
Chain of Aurora kinase B (Q96GD4 whole entry): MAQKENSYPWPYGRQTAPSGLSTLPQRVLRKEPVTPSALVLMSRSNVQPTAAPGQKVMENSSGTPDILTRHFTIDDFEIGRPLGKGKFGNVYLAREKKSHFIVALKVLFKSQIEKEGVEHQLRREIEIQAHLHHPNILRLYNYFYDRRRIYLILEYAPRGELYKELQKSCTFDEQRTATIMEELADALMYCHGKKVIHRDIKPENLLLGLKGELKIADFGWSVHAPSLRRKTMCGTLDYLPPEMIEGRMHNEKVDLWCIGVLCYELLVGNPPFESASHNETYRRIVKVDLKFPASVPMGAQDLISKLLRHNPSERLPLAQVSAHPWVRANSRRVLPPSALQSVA

Consider `Cc1ccc2c(c1)C(=O)N(C)c1cnc(Nc3cnn(C4CCNCC4)c3)nc1N2C`, for which the IC50 in experiment [1] came out at 7 nM. In [2], `C[C@@H](O)[C@@H](C)Oc1nc(Nc2ccc([S@](=N)(=O)C3CC3)cc2)ncc1C(F)(F)F` [RONICICLIB] came in with an IC50 of less than 10 nM.

Regarding `COc1cccc(OCCCN)c1-c1cc(Nc2cnc(C#N)cn2)n[nH]1` [PREXASERTIB], in [2], the half-inhibitory concentration (IC50) is 64 nM. Take `Cc1cc(Nc2nc(NC(C)c3ccc(F)cc3)c(C#N)cc2F)n[nH]1` (stereo not drawn): the inhibition in experiment [3] was determined as 3%; in experiment [4], 35%; in experiment [5], 6%.

Consider `CCC(=O)Nc1cccc(Oc2nc(Nc3ccc(N4CCN(C)CC4)cc3OC)ncc2Cl)c1`, for which the IC50 in [1] stood at 1.5 nM. The same measure, in the same setting: next, `CC(C)(C)NS(=O)(=O)c1cccc(Nc2nc(Nc3cnn(C4CCNCC4)c3)ncc2Cl)c1`: 67 nM. Turning to `CN1CCN(c2ccc(Nc3ncc4cc(C#N)c(=O)n(C5CCCC5)c4n3)cc2)CC1` [NARAZACICLIB], the IC50 was 3.9 nM in experiment [6] and 9.2 nM in experiment [7]. In the case of `O=C(NCCCNc1nc(Nc2cccc(CN3CCOCC3)c2)ncc1C1CC1)C1CCC1`, the half-maximal inhibitory concentration (IC50) in [8] was 2600 nM. For the compound `CN1C(=O)c2cc3ccccc3cc2N(C)c2nc(Nc3cnn(C4CCNCC4)c3)ncc21`, the concentration for half-maximal inhibition (IC50) against Aurora kinase C came out at 120 nM; in experiment [9] it was 10000 nM; against Aurora kinase B, 54 nM. In experiment [2], `O=C(NCCCNc1nc(Nc2cccc(NC(=O)N3CCCC3)c2)ncc1I)c1cccs1` [BX-795] gave an IC50 of 5 nM. Take `C=CC(=O)Nc1cccc(Oc2nc(Nc3ccc(N4CCN(C)CC4)cc3)nc3[nH]cnc23)c1`: in experiment [1], the half-inhibitory concentration (IC50) turned out to be 33 nM.

In the case of `Cc1nc(Nc2cnn(C3CCNCC3)c2)nc2c1N(C)C(=O)c1ccccc1N2C`, in [1], the half-inhibitory concentration (IC50) was 17 nM. For the compound `COCCN1CCN(CCn2ccc(Nc3ncc4c(n3)C(C)Cc3nn(C)c(-c5ccccc5)c3-4)n2)CC1` (stereo not drawn), the figures for the Kd (in experiment [10]; at Insulin receptor [13]) were 9 nM and 12 nM, respectively. The concentration for half-maximal inhibition (IC50) is 1 nM at Insulin receptor [11], 1 nM in experiment [12] and 411 nM in experiment [2]. `CCCC(=O)Nc1cccc(Oc2nc(Nc3ccc(N4CCN(C)CC4)cc3OC)ncc2I)c1` showed an IC50 in experiment [8] of 126 nM.

For the compound `Cc1cc(Nc2ncc3c(n2)N(C)c2ccccc2C(=O)N3C)ccc1C(=O)N1CCN(C)CC1`, in experiment [1], the IC50 turned out to be 6 nM.

As for `Fc1ccc(Cn2cnc3cc(Cl)c(Nc4cc(C5CC5)[nH]n4)nc32)cc1`, half-maximal inhibition in experiment [2] (IC50) required 34.9 nM.

Regarding `C=CC(=O)Nc1cccc(Oc2nc(Nc3ccc(N4CCN(C)CC4)cc3OC)ncc2Cl)c1`, the half-inhibitory concentration (IC50) in experiment [1] amounted to 25 nM. `Cc1ccc2c(c1)C(=O)N(C)c1cnc(Nc3ccc4c(c3)NC(=O)CC4)nc1N2C`: the IC50 in experiment [14] is 2000 nM; in experiment [1], 15 nM.

As a reminder, the IC50 is the concentration that gives 50% inhibition. The term inhibition denotes how much of the control response was suppressed. For orientation: Kd means the free concentration of one partner at which half of the binding sites on the other are occupied at equilibrium, for simple one-to-one binding.

The record behind these values is ChEMBL document CHEMBL5096150, “Development and Therapeutic Potential of NUAKs Inhibitors” (J Med Chem, 2021).
